In patent US10407467B2, “Polymyxin derivatives and their use in combination therapy together with different antibiotics” (priority 2013, dated 2019):
Where a name gives a salt, the structure may show the parent alone. Bridge positions count the residues as written; N and C are the ends. Square brackets hold non-standard residues; d marks the D form. Peptide text beside a SMILES is read from it. * marks the point of attachment. ξ: configuration not given here. ξβ3hGly(cHex) = NC(CC(=O)*)C1CCCCC1; X8 = N[C@@H]1CC[C@H](C(=O)*)C1; Thr(3ξ) = CC(O)[C@H](N)C(=O)O; X11 = O=C(C(O)c1cccc(Br)c1)*; X9 = CC(C)[C@H](N)CCC(=O)*; X5 = O=C(C[C@@H]1CCCCN1)*; Dab = NCC[C@H](N)C(=O)O

Experiments:
Type in all cases: cell-based
Acinetobacter baumannii [1] = assay: MIC, compound in combination with a second agent (broth microdilution); details: 1:1 (wt:wt) combination with Rifampicin
Summary of the method: (§1)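 Read-out is the total-drug MIC of a 1:1 weight ratio combination with another agent, e.g. rifampicin. Duplicates within 2-fold gave the lower value; wider spread meant a non-valid assay. Where compounds were tested multiple times, the mode is given.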

Escherichia coli [2] = assay: as above; details: 1:1 (wt:wt) combination with Rifampicin
Summary of the method: as §1

Klebsiella pneumoniae [3] = assay: as above; details: 1:1 (wt:wt) combination with Rifampicin
Summary of the method: as §1

Pseudomonas aeruginosa [4] = assay: as above; details: 1:1 (wt:wt) combination with Rifampicin
Summary of the method: as §1

Acinetobacter baumannii [5] = assay: MIC, sole activity (no second agent); details: in the absence of Rifampicin
Summary of the method: (§2)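 Up to four strains per species were tested in cation-adjusted Mueller-Hinton broth, with inoculum made by direct colony suspension from 18-24 hour Mueller-Hinton agar plates, adjusted to 0.5 McFarland. Duplicates differing by under 2-fold gave the lower value; greater spread voided the run. Values are relative to Polymyxin B.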

Escherichia coli [6] = assay: MIC, sole activity (no second agent); details: in the absence of Rifampicin
Summary of the method: as §2

Klebsiella pneumoniae [7] = assay: MIC, sole activity (no second agent); details: in the absence of Rifampicin
Summary of the method: as §2

Pseudomonas aeruginosa [8] = assay: MIC, sole activity (no second agent); details: in the absence of Rifampicin
Summary of the method: as §2

[9] = MIC = total drug concentration, strain ATCC BAA-747
[10] = MIC = total drug concentration, strain CCUG57249
[11] = MIC = total drug concentration, strain NCTC 13423
[12] = MIC = total drug concentration, strain NCTC 13424
[13] = MIC = total drug concentration, strain ATCC25922
[14] = MIC = total drug concentration, strain NCTC9001
[15] = MIC = total drug concentration, strain ATCC-BAA-2146
[16] = MIC = total drug concentration, strain CCUG-59348
[17] = MIC = total drug concentration, strain NCTC 13438
[18] = MIC = total drug concentration, strain ATCC 27853
[19] = MIC = total drug concentration, strain ATCC CRM-9027
[20] = MIC = total drug concentration, strain ATCC-47
[21] = MIC = total drug concentration, strain CCUG 59626
[22] = MIC is total drug concentration

Row | MIC A. baumannii ATCC BAA-747 (Acinetobacter baumannii [1]; [9]) [micrograms/mL] | MIC A. baumannii CCUG57249 (Acinetobacter baumannii [1]; [10]) [micrograms/mL] | MIC A. baumannii NCTC 13423 (Acinetobacter baumannii [1]; [11]) [micrograms/mL] | MIC A. baumannii NCTC 13424 (Acinetobacter baumannii [1]; [12]) [micrograms/mL] | MIC E. coli ATCC25922 (Escherichia coli [2]; [13]) [micrograms/mL] | MIC E. coli NCTC9001 (Escherichia coli [2]; [14]) [micrograms/mL] | MIC K. pneumoniae ATCC-BAA-2146 (Klebsiella pneumoniae [3]; [15]) [micrograms/mL] | MIC K. pneumoniae CCUG-59348 (Klebsiella pneumoniae [3]; [16]) [micrograms/mL] | MIC K. pneumoniae NCTC 13438 (Klebsiella pneumoniae [3]; [17]) [micrograms/mL] | MIC P. aeruginosa ATCC 27853 (Pseudomonas aeruginosa [4]; [18]) [micrograms/mL] | MIC P. aeruginosa ATCC CRM-9027 (Pseudomonas aeruginosa [4]; [19]) [micrograms/mL] | MIC P. aeruginosa ATCC-47 (Pseudomonas aeruginosa [4]; [20]) [micrograms/mL] | MIC P. aeruginosa CCUG 59626 (Pseudomonas aeruginosa [4]; [21]) [micrograms/mL] | Compound | further results
1 | 0.25 | 0.25 | 0.25 | 0.5 | 0.25 | 0.5 | 2 | 2 | 1 | 0.5 | 0.5 | 0.5 | 0.25 | CC(C)C[C@@H]1NC(=O)[C@@H](CC(C)C)NC(=O)[C@H](CCN)NC(=O)[C@@H](NC(=O)[C@H](CCN)NC(=O)[C@@H](NC(=O)C(O)C2CCCCC2)C(C)O)CCNC(=O)[C@H](C(C)O)NC(=O)[C@H](CCN)NC(=O)[C@H](CCN)NC1=O (single isomer, unassigned; isomer 1) [Example 31, 2(RS)-(2-Hydroxy-2-cyclohexyl)ethanoyl polymyxin E nonapeptide, TFA salt. Isomer 1] | –
2 | – | ≤0.06 | 0.125 | 0.125 | 0.125 | 1 | 0.5 | 2 | 0.5 | 0.25 | 1 | 0.5 | 0.25 | CC(C)C[C@@H]1NC(=O)[C@@H](Cc2ccccc2)NC(=O)[C@H](CCN)NC(=O)[C@@H](NC(=O)[C@H](CCN)NC(=O)[C@@H](NC(=O)C(O)c2cccc(Br)c2)C(C)O)CCNC(=O)[C@H](C(C)O)NC(=O)[C@H](CCN)NC(=O)[C@H](CCN)NC1=O (stereo partly shown) [Example 18] (X11-[Thr(3ξ)][Dab][Dab][Dab][dF]L[Dab][Dab][Thr(3ξ)]; lactam 3-C) | MIC K. pneumoniae ATCC 4352 (Klebsiella pneumoniae [3]; MIC = total drug concentration, strain ATCC 4352): 0.125 micrograms/mL
3 | – | – | – | – | – | 0.125 | 0.25 | 4 | 0.5 | – | – | – | – | CC(C)C[C@@H]1NC(=O)[C@@H](Cc2ccccc2)NC(=O)[C@H](CCN)NC(=O)[C@@H](NC(=O)[C@H](CCN)NC(=O)[C@@H](NC(=O)CC[C@@H](N)C(C)C)C(C)O)CCNC(=O)[C@H](C(C)O)NC(=O)[C@H](CCN)NC(=O)[C@H](CCN)NC1=O (stereo partly drawn) [Example 22, 4(R)-Amino-5-methylhexanoyl polymyxin B nonapeptide] (X9-[Thr(3ξ)][Dab][Dab][Dab][dF]L[Dab][Dab][Thr(3ξ)]; lactam 3-C) | MIC A. baumannii ATCCBAA-747 (Acinetobacter baumannii [5]; strain ATCCBAA-747): 1 micrograms/mL; MIC A. baumannii NCTC 13423 (Acinetobacter baumannii [5]; strain NCTC13423): 0.5 micrograms/mL; MIC E. coli ATCC25922 (Escherichia coli [6]; strain ATCC25922): 8 micrograms/mL; MIC E. coli NCTC9001 (Escherichia coli [6]; strain NCTC9001): >32 micrograms/mL; MIC K. pneumoniae ATCC 4352 (Klebsiella pneumoniae [7]; strain ATCC 4352): 0.5 micrograms/mL; MIC K. pneumoniae ATCC-BAA2146 (Klebsiella pneumoniae [7]; strain ATCC-BAA2146): >32 micrograms/mL; MIC K. pneumoniae CCUG-59348 (Klebsiella pneumoniae [7]; strain CCUG-59348): >32 micrograms/mL; MIC K. pneumoniae NCTC-13438 (Klebsiella pneumoniae [7]; strain NCTC-13438): >32 micrograms/mL; MIC P. aeruginosa ATCC 27853 (Pseudomonas aeruginosa [8]; strain ATCC27853): 0.125 micrograms/mL; MIC P. aeruginosa ATCCCRM-9027 (Pseudomonas aeruginosa [8]; strain ATCCCRM-9027): 0.5 micrograms/mL
4 | ≤0.06 | 0.125 | ≤0.06 | <0.06 | 0.25 | – | 0.25 | 2 | 0.5 | 0.25 | 0.125 | 0.125 | 0.25 | CC(C)C[C@@H]1NC(=O)[C@@H](CC(C)C)NC(=O)[C@H](CCN)NC(=O)[C@@H](NC(=O)[C@H](CCN)NC(=O)[C@@H](NC(=O)CC(N)C2CCCCC2)C(C)O)CCNC(=O)[C@H](C(C)O)NC(=O)[C@H](CCN)NC(=O)[C@H](CCN)NC1=O (stereo partly drawn) [Example 30, 3(R,S)-3-Amino-3-cyclohexane-propanoyl]Polymyxin E nonapeptide, TFA salt] ({ξβ3hGly(cHex)}-[Thr(3ξ)][Dab][Dab][Dab][dL]L[Dab][Dab][Thr(3ξ)]; lactam 3-C) | –
5 | ≤0.06 | ≤0.06 | ≤0.06 | ≤0.06 | ≤0.06 | 0.125 | 0.125 | 2 | 0.125 | ≤0.06 | ≤0.06 | ≤0.06 | ≤0.06 | CC(C)C[C@@H]1NC(=O)[C@@H](Cc2ccccc2)NC(=O)[C@H](CCN)NC(=O)[C@@H](NC(=O)[C@H](CCN)NC(=O)[C@@H](NC(=O)C[C@@H]2CCCCN2)C(C)O)CCNC(=O)[C@H](C(C)O)NC(=O)[C@H](CCN)NC(=O)[C@H](CCN)NC1=O (stereo partly drawn) [Example 33, (2S)-piperidin-2-yl-ethanoyl polymyxin B nonapeptide, trifluoroacetate salt] (X5-[Thr(3ξ)][Dab][Dab][Dab][dF]L[Dab][Dab][Thr(3ξ)]; lactam 3-C) | MIC A. baumannii ATCC BAA-747 (Acinetobacter baumannii [1]; [22]): ≤0.06 micrograms/mL; MIC A. baumannii CCUG57249 (Acinetobacter baumannii [1]; [22]): ≤0.06 micrograms/mL; MIC A. baumannii NCTC 13423 (Acinetobacter baumannii [1]; [22]): ≤0.06 micrograms/mL; MIC A. baumannii NCTC 13424 (Acinetobacter baumannii [1]; [22]): ≤0.06 micrograms/mL; MIC E. coli ATCC25922 (Escherichia coli [2]; [22]): ≤0.06 micrograms/mL; MIC E. coli NCTC9001 (Escherichia coli [2]; [22]): 0.125 micrograms/mL; MIC K. pneumoniae ATCC-BAA-2146 (Klebsiella pneumoniae [3]; [22]): 0.125 micrograms/mL; MIC K. pneumoniae CCUG-59348 (Klebsiella pneumoniae [3]; [22]): 2 micrograms/mL; MIC K. pneumoniae NCTC 13438 (Klebsiella pneumoniae [3]; [22]): 0.125 micrograms/mL; MIC P. aeruginosa ATCC 27853 (Pseudomonas aeruginosa [4]; [22]): ≤0.06 micrograms/mL; MIC P. aeruginosa ATCC CRM-9027 (Pseudomonas aeruginosa [4]; [22]): ≤0.06 micrograms/mL; MIC P. aeruginosa ATCC-47 (Pseudomonas aeruginosa [4]; [22]): ≤0.06 micrograms/mL; MIC P. aeruginosa CCUG 59626 (Pseudomonas aeruginosa [4]; [22]): ≤0.06 micrograms/mL
6 | ≤0.06 | ≤0.06 | ≤0.06 | ≤0.06 | – | 0.125 | 0.125 | 4 | 0.25 | 0.125 | – | 0.125 | 0.125 | CC(C)C[C@@H]1NC(=O)[C@@H](Cc2ccccc2)NC(=O)[C@H](CCN)NC(=O)[C@@H](NC(=O)[C@H](CCN)NC(=O)[C@@H](NC(=O)[C@H]2CC[C@@H](N)C2)C(C)O)CCNC(=O)[C@H](C(C)O)NC(=O)[C@H](CCN)NC(=O)[C@H](CCN)NC1=O (stereo partly drawn) [Example 34A, (1S,3R)-3- Aminocyclopentane carbonyl polymyxin B nonapeptide, trifluoroacetate salt] (X8-[Thr(3ξ)][Dab][Dab][Dab][dF]L[Dab][Dab][Thr(3ξ)]; lactam 3-C) | MIC E. coli ATCC25922 (Escherichia coli [2]; MIC = total drug concentration, strain ATCC25922, trifluoroacetate salt): ≤0.06 micrograms/mL; MIC P. aeruginosa ATCC CRM-9027 (Pseudomonas aeruginosa [4]; MIC = total drug concentration, strain ATCC CRM-9027, trifluoroacetate salt): 0.125 micrograms/mL
